# Reference: US20180320217A1, “METHODS FOR SAMPLING AND MEASURING ORAL LAVAGE PROTEINS” (The Procter & Gamble Company, priority 2017, published 2018)
# Counter-ions that a name gives are not always drawn.
# Experiments:
# diaphorase [1] = assay: Effect of concentrations of tetrazolium salts on formation of formazan dyes (FIGS. 4A-4G); assay type: biochemical; conditions: 15 mM NADH+H, 20 μg diaphorase, pH 7.5; FIGS. 4A to 4G
# Experimental: On the idea that higher concentrations of tetrazolium salts in the assay buffer would likely result in more formazan dyes in the reaction, various concentrations of tetrazolium salts were added to a reaction buffer and the formation of formazan dyes were measured at 0, 30 and 60 minutes. […] The reactions were performed at room temperature. Absorbance was taken at 0, 30 and 60 minutes.
# [2] = Formation of formazan dyes: NADH and 1-methoxy PMS, absence of malate (TABLE 15); assay type: biochemical; conditions: NADH and 1-methoxy PMS, absence of malate, mean of three experiments
# oral lavage = assay: Formation of formazan dyes: oral lavage and diaphorase, not malate (TABLE 11); assay type: biochemical, human
# diaphorase [3] = assay: Formation of formazan dyes: NADH, diaphorase and malate (TABLE 8); assay type: biochemical, Clostridium kluyveri; conditions: NADH, diaphorase and malate
# Malate dehydrogenase = target: T1, Malate dehydrogenase (Sus scrofa, UniProt P00346); assay: Formation of formazan dyes: Malate dehydrogenase, malate and 1-Methoxy PMS (TABLE 18); assay type: biochemical, pig heart; design: L-malate dehydrogenase (pig heart); purchased Sigma-Aldrich 10127248001 / 10127914001; conditions: Malate dehydrogenase, malate and 1-Methoxy PMS, mean of three experiments
# T1 sequence (P00346 25-338): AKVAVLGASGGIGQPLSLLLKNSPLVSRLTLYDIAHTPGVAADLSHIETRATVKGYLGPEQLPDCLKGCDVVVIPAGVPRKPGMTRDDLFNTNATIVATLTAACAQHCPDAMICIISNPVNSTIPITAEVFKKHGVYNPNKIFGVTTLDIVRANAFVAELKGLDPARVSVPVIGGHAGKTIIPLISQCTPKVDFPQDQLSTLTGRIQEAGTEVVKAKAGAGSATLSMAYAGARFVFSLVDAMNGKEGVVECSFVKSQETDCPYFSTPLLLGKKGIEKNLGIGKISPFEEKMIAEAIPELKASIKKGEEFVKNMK
smiles,measurement,setting,value
"Cc1nc(-[n+]2nc(-c3cccc(OCC(=O)O)c3)nn2-c2ccc(S(=O)(=O)[O-])cc2)sc1C [MTS, 3-(4,5-dimethylthiazol-2-yl)-5-(3-carboxymethoxyphenyl)-2-(4-sulfophenyl)-2H-tetrazolium, inner salt]",concentration of tetrazolium salt at which absorbance reached peaks,diaphorase [1],around 1.5 mM
same,"Absorbance, formation of formazan dyes (Means)",[2]; 0 h,2.31
same,"Absorbance, formation of formazan dyes (Means)",[2]; 1 h,2.55
same,"Absorbance, formation of formazan dyes (Means)",[2]; 2 h,2.60
same,"Absorbance, formation of formazan dyes (Means)",[2]; 3 h,2.59
same,"Absorbance, formation of formazan dyes (Means)",[2]; 4 h,2.63
same,"Absorbance, formation of formazan dyes (Means)",[2]; 6 h,2.65
same,"Absorbance, formation of formazan dyes (Means)",[2]; 8 h,2.69
same,"Absorbance, formation of formazan dyes (Means)",[2]; 10 h,2.67
same,"Absorbance, formation of formazan dyes (Means)",[2]; 12 h,2.65
same,"Formation of formazan dyes, absorbance, Means 0 h","oral lavage; oral lavage and diaphorase, not malate, 0 h",0.70
same,"Formation of formazan dyes, absorbance, Means 1 h","oral lavage; oral lavage and diaphorase, not malate, 1 h",0.86
same,"Formation of formazan dyes, absorbance, Means 2 h","oral lavage; oral lavage and diaphorase, not malate, 2 h",0.91
same,"Formation of formazan dyes, absorbance, Means 3 h","oral lavage; oral lavage and diaphorase, not malate, 3 h",1.00
same,"Formation of formazan dyes, absorbance, Means 4 h","oral lavage; oral lavage and diaphorase, not malate, 4 h",1.13
same,"Formation of formazan dyes, absorbance, Means 6 h","oral lavage; oral lavage and diaphorase, not malate, 6 h",1.18
same,"Formation of formazan dyes, absorbance, Means 8 h","oral lavage; oral lavage and diaphorase, not malate, 8 h",1.21
same,"Formation of formazan dyes, absorbance, Means 10 h","oral lavage; oral lavage and diaphorase, not malate, 10 h",1.25
same,"Formation of formazan dyes, absorbance, Means 12 h","oral lavage; oral lavage and diaphorase, not malate, 12 h",1.27
same,reduction to formazan dyes by pooled oral lavage,"oral lavage; pooled oral lavage of high bleeder group, diaphorase, no added malate (TABLE 11)",changed to formazan dyes in a significant amount
same,"Formation of formazan dyes, absorbance, Means 0 h",diaphorase [3]; 0 h,3.01
same,"Formation of formazan dyes, absorbance, Means 1 h",diaphorase [3]; 1 h,3.01
same,"Formation of formazan dyes, absorbance, Means 2 h",diaphorase [3]; 2 h,3.00
same,"Formation of formazan dyes, absorbance, Means 3 h",diaphorase [3]; 3 h,3.00
same,"Formation of formazan dyes, absorbance, Means 4 h",diaphorase [3]; 4 h,3.07
same,"Formation of formazan dyes, absorbance, Means 6 h",diaphorase [3]; 6 h,3.09
same,"Formation of formazan dyes, absorbance, Means 8 h",diaphorase [3]; 8 h,3.17
same,"Formation of formazan dyes, absorbance, Means 10 h",diaphorase [3]; 10 h,3.08
same,"Formation of formazan dyes, absorbance, Means 12 h",diaphorase [3]; 12 h,3.20
same,"Absorbance, formation of formazan dyes (Means)",Malate dehydrogenase; 0 h,2.40
same,"Absorbance, formation of formazan dyes (Means)",Malate dehydrogenase; 1 h,3.33
same,"Absorbance, formation of formazan dyes (Means)",Malate dehydrogenase; 2 h,3.42
same,"Absorbance, formation of formazan dyes (Means)",Malate dehydrogenase; 3 h,3.38
same,"Absorbance, formation of formazan dyes (Means)",Malate dehydrogenase; 4 h,3.38
same,"Absorbance, formation of formazan dyes (Means)",Malate dehydrogenase; 6 h,3.27
same,"Absorbance, formation of formazan dyes (Means)",Malate dehydrogenase; 8 h,3.26
same,"Absorbance, formation of formazan dyes (Means)",Malate dehydrogenase; 10 h,3.18
same,"Absorbance, formation of formazan dyes (Means)",Malate dehydrogenase; 12 h,3.09
